Laboratory results published in patent publication US4404230A, “4-Hydroxy-1,2-Benzisothiazol-3(2H)-one-1,1-dioxides and salts thereof” (priority 1980, dated 1983).

Test system: Mouse
Test: Test for acute toxicity, mouse
Details: for Animals which died: 10 animals
Method: The acute toxicity was determined after oral administration of substance B to male and female mice, rats and dogs. The substance was administered to mice and rats in the form of a suspension in tylose and to dogs in the form of a solution in water.

Question: How did the Animals which died (10 g/kg oral, 1 day) turn out when `O=C1NS(=O)(=O)c2cccc(O)c21.[Na]` was run?
Answer: The Animals which died was 0.

Question: And the Animals which died (10 g/kg oral, 7 days)?
Answer: Its Animals which died is 0.

Question: And the Animals which died (10 g/kg oral, 14 days)?
Answer: The Animals which died was 0.

Question: And the “deaths (in words)” value (10 g/kg oral, during the observation time)?
Answer: Its value is “no animals died”.

Question: What about the behavior (mouse, in vivo, po) of the same compound?
Answer: Its behavior is “completely normal behavior”.

Question: What about the toxic symptoms (mouse, in vivo, po) of the same compound?
Answer: The toxic symptoms was “no toxic symptoms could be observed”.
